Common to all, as to type: in vivo
A short description of series [1]: Wasted fraction of continuously delivered radioaerosol in ventilated sheep, expiratory filter gamma counting. Particulars: continuous zero flow nebulizer. Here is the method: This study was designed to compare the wasted fraction of ^99mTc-DTPA aerosols delivered continuously with the zero flow nebulizer to control sheep (n=6) and sheep administered 2 mg/kg E. coli endotoxin. This dose of endotoxin in sheep causes a period of intense bronchoconstriction and pulmonary vasoconstriction followed by pulmonary edema. The experimental setup was similar to that illustrated in FIG. 15, except that no scintillation probe was used and isotope waste was measured by counting radioactivity in a filter placed in the expiratory portion of the ventilator tubing using a gamma energy counter. The wasted fraction of aerosol was more than 3-fold higher during endotoxin-induced lung injury with endotoxin [3,836,141 (n=1)] than when the lungs were normal [1,289,102±125,326 (n=6)].

Series [2] can be described thus: Aerosol deposition and clearance of radiotracers in lungs of ventilated sheep (Hawkeye imaging, gamma counting of lung tissue). To be noted: Hi-Flo MiniHeart nebulizer.
Method: The present study was designed to assess aerosol deposition patterns using jet nebulizers and the device of the present disclosure. These studies were conducted in the Vanderbilt University Medical Center Hawkeye scanning facility. Each sheep was surgically instrumented with catheters in a jugular vein and a carotid artery. After allowing several days for the sheep to recuperate from surgery, they were anesthetized, intubated, ventilated, and placed on the GE Hawkeye scanner bed. […] The contents of the syringe were then added to a nebulizer and aerosols generated for 30 minutes during ventilator-assisted inspiration. Planar images were taken every two minutes with anterior and posterior cameras. Nebulization was then halted, and clearance of the radiotracers over two hours was measured with Hawkeye in an identical manner. At the end of the radioisotope clearance image acquisition, a rotational CT image was taken of the sheep thoracic cavity to delineate lung boundaries and chest anatomy. The sheep was sacrificed and its lungs excised. Lungs were placed on grid paper and diced with a rectangular cutting grid. Lung tissue was placed in plastic vials and gamma energy emissions of each isotope measured with a gamma counter.
The next series deals with anesthetized sheep. Nature of the series: Bronchoconstriction produced by sodium arachidonate aerosol in anesthetized ventilated sheep. To be noted: aerosolized, dose 1.5 grams/50 ml typically diluted 1:3. As for the experimental part: In anesthetized sheep with either normal lung mechanics or during bronchoconstriction, the effects of phasic aerosol delivery on the amount of radioisotope deposited in the lungs and the amount expired (as collected in a waste filter) were tested. Results were compared to those in which aerosol was delivered continuously. Sheep were anesthetized and ventilated with oxygen-enriched air at a tidal volume of 500 ml and a respiratory rate of 10 breaths per minute. The ventilator setup is illustrated schematically in FIG. 15.
FIGS. 16-18 also illustrate effects of bronchoconstriction produced by an aerosol of sodium arachidonate on aerosol delivery efficiency. These studies were conducted after the control studies discussed above. Arachidonic acid was converted to sodium arachidonate by the procedure of Ogletree and Brigham and was aerosolized (Dose=1.5 grams/50 ml typically diluted 1:3) to cause marked bronchoconstriction and/or decreased lung compliance and thus elevated airway pressure. […] During bronchoconstriction, ^99mTc-DTPA was administered by phasic aerosol delivery while maintaining the arachidonate delivery. […]

In the case of `O=C([O-])CN(CCN(CC(=O)[O-])CC(=O)[O-])CCN(CC(=O)[O-])CC(=O)[O-].[99Tc+4]` [99mTc-DTPA], the “wasted fraction, endotoxin-induced lung injury versus normal lungs” value in series [1] was “more than 3 fold”. Also, the “wasted fraction of aerosol (radioactivity in expiratory filter)” value in series [1] (endotoxin-induced lung injury, 2 mg/kg E. coli endotoxin, n=1) is recorded as 3,836,141; in series [1] (normal lungs, control sheep, n=6), 1,289,102±125,326. Besides, in series [2] (2 hours after halting aerosol generation), the “tracer remaining in lungs after halting aerosol generation” value is “much of the tracer remained”. In addition, in series [2] (gamma counting of lung tissue samples), the “radioisotope distribution in lung tissue” value is “higher dorsal (towards back) and caudal (towards tail) deposition”.
On to `CCCCC/C=C\C/C=C\C/C=C\C/C=C\CCCC(=O)[O-].[Na+]` [sodium arachidonate], for which, in the series with anesthetized sheep, the hypoxemia during bronchoconstriction result was “marked hypoxemia”. Also, the “airway pressure during bronchoconstriction” value in the series with anesthetized sheep (within 20 minutes) was 48-50 cm H2O.

Source of the values: patent publication US20070157931A1, “System and method for optimized delivery of an aerosol to the respiratory tract” (priority 2005, published 2007).
